Reference: patent US5132424A, “Pyrazolo-pyrrolo-pyrimidine-diones” (The Upjohn Company, priority 1991, dated 1992)

Tests used:
ACAT enzyme [1] = conditions: known drug; cited from earlier work
ACAT enzyme [2] = experiment: ACAT Inhibition Assay (inhibition of cholesterol esterification in cultured Fu5AH rat hepatoma cells); type: cell-based; set-up: key to Activity: Active: Compounds with ACAT inhibiting activity equal to, or greater than, that of chloropromazine are declared active; conditions: for % Inhib. of Chol. Esterf.: Fu5AH cells, 18 hours; for Activity: compared with chlorpromazine
Excerpt: A standard in vitro test system designed to identify compounds capable of inhibitory the ACAT enzyme in cultured Fu5AH rat hepatoma cells which was used to test the compounds of this invention, among others, is described hereinbelow.
Since the ACAT enzyme in Fu5AH cells is similar if not identical to the ACAT enzyme in arterial tissue in valuable, warm-blooded animals, including humans, the Fu5AH cell test represents a more efficient, simplified and economical means of screening for ACAT inhibitors than similar assays which depend upon the use of arterial tissue and arterial subfractions as the source of the ACAT enzyme.
For our in vitro test the Fu5AH rat hepatoma cell line was selected as our source of the ACAT enzyme since this particular cell line mimicked important characteristics of human and valuable animal arterial cells during the development of atherosclerosis. The Fu5AH cells accumulate cholesterol extensively when incubated with hyperlipemic plasma proteins; more importantly, Fu5HA cells accumulated the cholesterol predominantly as the esterified form through the action of the ACAT enzyme. See Rothblat, G. H., "Cholesteryl Ester Metabolism in Tissue Culture Cell. I. Accumulation in Fu5AH Rat Hepatoma Cells", Lipids, 9, (1974) page 526.
The Fu5AH cells used in our in vitro assay were first acquired from G. H. Rothblat, supra, of the Medical College of Pa.
The Fu5AH rat hepatoma cell-line was derived from the Reuber H-35 rat hepatoma. (See Reuber, M.D., "A Transplantable Bilesecreting Hepatocellular Carcinoa in the Rat", J. Natl., Cancer Inst., 26 (1961), page 891. The cell-line is maintained in Eagle's Minimal Essential Medium (MEM, GiBCO) supplemented with 5% bovine fetal calf serum. Incubation is at 36° C. in an atmosphere of 5% CO2 in air (Hotpack, Model 351922). Cells from stock cultures, grown to confluency in 25 cm^2 flasks (Falcon) containing 10 ml. medium, are detached with 0.25% trypsin in 1% ethylenediaminetetraacetic acid (EDTA) (Gibco), diluted 1:10 with MEM and mixed by agitation through a pipette which serves to disrupt the cellular clumps. Stock cultures are replenished with fresh medium at 3 to 4 day intervals.
One ml. aliquots of the diluted stock suspension described above are then transferred to 60 mm. dishes (Falcon) containing four ml. MEM and the seeded cells are allowed to grow to confluence (three days). At confluence, the medium is removed by aspiration and the cells are washed once with MEM. Five ml. of MEM supplemented with 5% hyperlipemic rabbit serum (HRS) (HRS is obtained from male New Zealane rabbits fed Purina Chow® rabbit feed supplemented with 1% cholesterol and 3% peanut oil (w/w/w/) for two to three weeks. Pooled sera from two or more rabbits are filtered through a 0.45 mμ filter (Nalgene) and stored frozen in convenient aliquots until used) and containing 1μ Ci/ml of ^3 H-cholesterol are then added to the dishes as the experimental (assay) medium. The experimental medium is labeled with 1,2-^3 H(N)-cholesterol (sp. act. approx. 40-60 Ci/mol, New Zealand Nuclear Corp.) prior to its addition to the confluent cultures and is prepared as follows. Five ml. of HRS is diluted with approximately 20 ml of MEM and the mixture is labeled by the addition of 100 μCi ^3 H-cholesterol dissolved in 100 μl absolute ethyl alcohol. The resulting mixture is then incubated for four hours at 36° C. to permit equilibration of the labeled cholesterol with the serum lipoprotein-cholesterol. After the equilibration period, the mixture is diluted to 100 ml. with MEM and used as the labeled assay medium. Following the addition of the labeled medium to the dishes, dimethylsulfoxide solutions of the test substances and the positive standard chloropromazine HCl (1 mg/ml) are added to the cultures in volumes of 25, 50, […]; control cultures receive equivalent volumes of dimethylsufoxide alone. […]

CN1C(=O)CN=C(c2ccccc2)c2cc(Cl)ccc21 [diazepam]
ACAT enzyme inhibition (in words) (ACAT enzyme [1]): ACAT enzyme inhibiting activity

O=C1c2c(c(=O)n3nc(-c4ccccc4)cc3n2Cc2ccccc2)CN1c1ccccc1 [Example 7, 6,7-Dihydro-2,6-diphenyl-4-(phenylmethyl)-4H-pyrazolo[1,5-a]pyrrolo[3,4-d]-pyrimidine-5,8-dione]
% Inhib. of Chol. Esterf. (ACAT enzyme [2]; 5.0 ug/ml): 21.2% | Activity (ACAT enzyme [2]; 5.0 ug/ml): Active | % Inhib. of Chol. Esterf. (ACAT enzyme [2]; 10.0 ug/ml): 17.6% | Activity (ACAT enzyme [2]; 10.0 ug/ml): Inactive | % Inhib. of Chol. Esterf. (ACAT enzyme [2]; 15.0 ug/ml): 15.0% | Activity (ACAT enzyme [2]; 15.0 ug/ml): Inactive

CCOc1ccc(-c2cc3n(Cc4ccccc4)c4c(c(=O)n3n2)CN(C2CCCCC2)C4=O)cc1 [Example 6, 6-Cyclohexyl-6,7-dihydro-2-(4-ethoxyphenyl)-4-(phenylmethyl)-(4H)-pyrazolo[1,5-a]pyrrolo[3,4-d]pyrimidine-5,8-dione]
% Inhib. of Chol. Esterf. (ACAT enzyme [2]; 5.0 ug/ml): 49.8% | Activity (ACAT enzyme [2]; 5.0 ug/ml): Active | % Inhib. of Chol. Esterf. (ACAT enzyme [2]; 10.0 ug/ml): 75.4% | Activity (ACAT enzyme [2]; 10.0 ug/ml): Active | % Inhib. of Chol. Esterf. (ACAT enzyme [2]; 15.0 ug/ml): 87.2% | Activity (ACAT enzyme [2]; 15.0 ug/ml): Active

CCCCCCn1c2c(c(=O)n3nc(-c4ccccc4)cc13)CN(C1CCCCC1)C2=O [Example 3, 6-Cyclohexyl-6,7-dihydro-4-hexyl-2-phenyl-4H-pyrazolo[1,5-a]pyrrolo[3,4-d]pyrimidine-5,8-dione]
% Inhib. of Chol. Esterf. (ACAT enzyme [2]; 5.0 ug/ml): 43.4% | Activity (ACAT enzyme [2]; 5.0 ug/ml): Active | % Inhib. of Chol. Esterf. (ACAT enzyme [2]; 10.0 ug/ml): 48.2% | Activity (ACAT enzyme [2]; 10.0 ug/ml): Active | % Inhib. of Chol. Esterf. (ACAT enzyme [2]; 15.0 ug/ml): 49.2% | Activity (ACAT enzyme [2]; 15.0 ug/ml): Active

COC(=O)C1=C(C)NC(C)=C(C(=O)OC)C1c1ccccc1[N+](=O)[O-] [nifedipine]
ACAT enzyme inhibition (in words) (ACAT enzyme [1]): inhibit the ACAT enzyme

O=C1c2c(c(=O)n3nc(-c4ccccc4)cc3n2CC(O)c2ccccc2)CN1C1CCCCC1 (stereo not drawn) [Example 14, 6-Cyclohexyl-6,7-dihydro-4-(2-hydroxy-2-phenylethyl)-2-phenyl-4H-oyrazolo[1,5-a] pyrrolo[3,4-d]pyrimidine-5,8-dione]
% Inhib. of Chol. Esterf. (ACAT enzyme [2]; 5.0 ug/ml): 49.6% | Activity (ACAT enzyme [2]; 5.0 ug/ml): Active | % Inhib. of Chol. Esterf. (ACAT enzyme [2]; 10.0 ug/ml): 65.9% | Activity (ACAT enzyme [2]; 10.0 ug/ml): Active | % Inhib. of Chol. Esterf. (ACAT enzyme [2]; 15.0 ug/ml): 40.2% | Activity (ACAT enzyme [2]; 15.0 ug/ml): Inactive

O=C1c2[nH]c3cc(-c4ccccc4)nn3c(=O)c2CN1C1CCCCC1 [6-Cyclohexyl-4,7-dihydro-2-phenyl-5H-pyrazolo[1,5-a]pyrrolo[3,4-d]pyrimidine-5,8(6H)-dione, reference compound]
activity in the ACAT enzyme screen (in words) (ACAT enzyme [2]; starting material): inactive

O=C1c2c(c(=O)n3nc(-c4ccccc4)cc3n2Cc2ccccc2)CCN1C1CCCCC1 [Example 9, 6-Cyclohexyl-2-phenyl-4-(phenylmethyl)-5,6,7,8-tetrahydro-4H-pyrazolo[1,5-a]pyrido[3,4-d]pyrimidine-5,9-dione]
% Inhib. of Chol. Esterf. (ACAT enzyme [2]; 5.0 ug/ml): 53.2% | Activity (ACAT enzyme [2]; 5.0 ug/ml): Active | % Inhib. of Chol. Esterf. (ACAT enzyme [2]; 10.0 ug/ml): 82.1% | Activity (ACAT enzyme [2]; 10.0 ug/ml): Active | % Inhib. of Chol. Esterf. (ACAT enzyme [2]; 15.0 ug/ml): 89.8% | Activity (ACAT enzyme [2]; 15.0 ug/ml): Active

COc1ccc([C@@H]2Sc3ccccc3N(CCN(C)C)C(=O)[C@@H]2OC(C)=O)cc1 [diltiazem]
ACAT enzyme inhibition (in words) (ACAT enzyme [1]): inhibit the ACAT enzyme

C=CCOc1ccc(-c2cc3n(Cc4ccccc4)c4c(c(=O)n3n2)CN(C2CCCCC2)C4=O)cc1 [Example 15, 6-Cyclohexyl-6,7-dihydro-2-[4-(2-propenyloxy)phenyl]-4-phenylmethyl-4H-pyrazolo[1,5-a]pyrrolo[3,4-d]pyrimidine-5,8-dione]
% Inhib. of Chol. Esterf. (ACAT enzyme [2]; 5.0 ug/ml): 36.0% | Activity (ACAT enzyme [2]; 5.0 ug/ml): Active | % Inhib. of Chol. Esterf. (ACAT enzyme [2]; 10.0 ug/ml): 65.3% | Activity (ACAT enzyme [2]; 10.0 ug/ml): Active | % Inhib. of Chol. Esterf. (ACAT enzyme [2]; 15.0 ug/ml): 84.3% | Activity (ACAT enzyme [2]; 15.0 ug/ml): Active

CC(C)NC[C@H](O)COc1cccc2ccccc12 (racemic) [propanolol]
ACAT enzyme inhibition (in words) (ACAT enzyme [1]): ACAT enzyme inhibiting activity

O=C1c2c(c(=O)n3nc(-c4ccc(O)cc4)cc3n2Cc2ccccc2)CN1C1CCCCC1 [Example 16, 6-Cyclohexyl-6,7-dihydro-2-(4-hydroxyphenyl)-4-phenyl-methyl-4H-pyrazolo[1,5-a]pyrrolo[3,4-d]pyrimidine-5,8-dione]
% Inhib. of Chol. Esterf. (ACAT enzyme [2]; 5.0 ug/ml): 4.3% | Activity (ACAT enzyme [2]; 5.0 ug/ml): Inactive | % Inhib. of Chol. Esterf. (ACAT enzyme [2]; 10.0 ug/ml): 32.7% | Activity (ACAT enzyme [2]; 10.0 ug/ml): Inactive | % Inhib. of Chol. Esterf. (ACAT enzyme [2]; 15.0 ug/ml): 66.5% | Activity (ACAT enzyme [2]; 15.0 ug/ml): Active

O=C(Cn1c2c(c(=O)n3nc(-c4ccc(Cl)cc4)cc13)CN(C1CCCCC1)C2=O)c1ccccc1 [Example 11, 4-(Benzoylmethyl)-2-(4-chlorophenyl)-6-cyclohexyl-6,7-dihydro-4H-pyrazolo[1,5-a]pyrrolo[3,4-d]pyrimidine-5,8-dione]
% Inhib. of Chol. Esterf. (ACAT enzyme [2]; 5.0 ug/ml): 78.2% | Activity (ACAT enzyme [2]; 5.0 ug/ml): Active | % Inhib. of Chol. Esterf. (ACAT enzyme [2]; 10.0 ug/ml): 84.5% | Activity (ACAT enzyme [2]; 10.0 ug/ml): Active | % Inhib. of Chol. Esterf. (ACAT enzyme [2]; 25.0 ug/ml (so in the source)): 89.2% | Activity (ACAT enzyme [2]; 25.0 ug/ml (so in the source)): Active

O=C1c2c(c(=O)n3nc(-c4ccccc4)cc3n2Cc2ccccc2)CN1Cc1ccccc1 [Example 8, 4,6-Bis(phenylmethyl)-6,7-dihydro-2-phenyl-4H-pyrazolo[1,5-a]pyrrolo[3,4-d]pyrimidine-5,8-dione]
% Inhib. of Chol. Esterf. (ACAT enzyme [2]; 5.0 ug/ml): 60.8% | Activity (ACAT enzyme [2]; 5.0 ug/ml): Active | % Inhib. of Chol. Esterf. (ACAT enzyme [2]; 10.0 ug/ml): 89.5% | Activity (ACAT enzyme [2]; 10.0 ug/ml): Active | % Inhib. of Chol. Esterf. (ACAT enzyme [2]; 15.0 ug/ml): 92.3% | Activity (ACAT enzyme [2]; 15.0 ug/ml): Active

O=C1c2c(c(=O)n3ncc(-c4ccccc4)c3n2Cc2ccccc2)CN1C1CCCCC1 [Example 10, 6-Cyclohexyl-6,7-dihydro-3-phenyl-4-(phenylmethyl)-4H-pyrazolo-[1,5-a]pyrrolo[3,4-d]-pyrimidine-5,8-dione]
% Inhib. of Chol. Esterf. (ACAT enzyme [2]; 5.0 ug/ml): 34.4% | Activity (ACAT enzyme [2]; 5.0 ug/ml): Active | % Inhib. of Chol. Esterf. (ACAT enzyme [2]; 10.0 ug/ml): 20.9% | Activity (ACAT enzyme [2]; 10.0 ug/ml): Inactive | % Inhib. of Chol. Esterf. (ACAT enzyme [2]; 15.0 ug/ml): 9.1% | Activity (ACAT enzyme [2]; 15.0 ug/ml): Inactive

COc1ccc(CCN(C)CCCC(C#N)(c2ccc(OC)c(OC)c2)C(C)C)cc1OC (stereo not drawn) [verapamil]
ACAT enzyme inhibition (in words) (ACAT enzyme [1]): inhibit the ACAT enzyme
